Source: ChEMBL document CHEMBL6134843, “HDAC11 Inhibition as a Potential Therapeutic Strategy for AML: Target Identification, Lead Discovery, Antitumor Potency, and Mechanism Investigation” (J Med Chem, 2025)
Activity calls are given as the source filed them. The calls are words filed in the database; no cut-off is given here.

Columns and labels:
[1] = target: Histone deacetylase 4 (Homo sapiens, UniProt P56524); assay: Inhibition of N-terminal GST-tagged C-terminal His-tagged human HDAC4 (627 to 1084 end residues) expressed in baculovirus expression system in Sf9 cells using Boc-Lys-(trifluoroacetyl)-AMC as substrate preincubated with enzyme for 1 hr followed by substrate addition and measured after 30 mins by fluorescence analysis
Chain of Histone deacetylase 4 (P56524 whole entry): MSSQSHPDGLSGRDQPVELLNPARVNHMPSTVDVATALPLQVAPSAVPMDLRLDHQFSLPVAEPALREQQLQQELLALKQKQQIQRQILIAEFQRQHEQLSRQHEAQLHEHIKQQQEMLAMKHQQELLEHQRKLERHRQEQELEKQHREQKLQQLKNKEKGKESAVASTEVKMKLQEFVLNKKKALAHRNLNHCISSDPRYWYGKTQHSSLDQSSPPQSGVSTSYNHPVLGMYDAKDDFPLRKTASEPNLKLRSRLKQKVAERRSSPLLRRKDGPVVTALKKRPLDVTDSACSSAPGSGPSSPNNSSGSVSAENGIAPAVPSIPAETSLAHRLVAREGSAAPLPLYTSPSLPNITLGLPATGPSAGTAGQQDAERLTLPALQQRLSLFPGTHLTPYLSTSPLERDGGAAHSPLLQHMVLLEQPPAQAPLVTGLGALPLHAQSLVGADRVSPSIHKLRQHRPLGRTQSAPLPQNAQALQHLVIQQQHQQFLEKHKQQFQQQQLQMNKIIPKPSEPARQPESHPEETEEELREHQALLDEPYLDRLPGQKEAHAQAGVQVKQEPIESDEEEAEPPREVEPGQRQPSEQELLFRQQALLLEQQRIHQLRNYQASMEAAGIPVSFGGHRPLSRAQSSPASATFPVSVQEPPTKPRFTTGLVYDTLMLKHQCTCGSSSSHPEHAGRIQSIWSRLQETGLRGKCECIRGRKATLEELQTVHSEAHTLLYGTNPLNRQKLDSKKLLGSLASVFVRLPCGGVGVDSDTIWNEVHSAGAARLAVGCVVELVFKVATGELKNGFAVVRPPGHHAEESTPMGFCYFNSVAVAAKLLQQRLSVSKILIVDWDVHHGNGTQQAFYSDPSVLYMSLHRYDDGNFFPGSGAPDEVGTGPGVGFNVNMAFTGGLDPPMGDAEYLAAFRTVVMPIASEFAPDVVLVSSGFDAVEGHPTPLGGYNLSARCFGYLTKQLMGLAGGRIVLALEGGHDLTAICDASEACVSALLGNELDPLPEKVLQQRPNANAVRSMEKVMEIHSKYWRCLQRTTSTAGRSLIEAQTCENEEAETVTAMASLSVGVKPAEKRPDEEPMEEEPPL

[2] = test system: OCI-AML2; assay: Antiproliferative activity against human OCI-AML2 cells assessed as cell growth inhibition incubated for 2 days by CCK-8 assay; details: OCI-AML2, 48 h
[3] = test system: OCI-AML-3; assay: Antiproliferative activity against human OCI-AML-3 cells assessed as cell growth inhibition incubated for 2 days by CCK-8 assay; details: OCI-AML-3, 48 h
[4] = Cytotoxicity against HEK293T cells assessed as cell viability incubated for 2 days by CCK-8 assay; type: toxicity, cell-based, HEK-293T; details: human
[5] = test system: U-937; assay: Cytotoxicity against human U-937 cells assessed as cell growth inhibition at 5 uM incubated for 24 to 48 hrs by cell counting assay; type: functional, cell-based; details: time 24-48 hrs
[6] = test system: OCI-AML2; assay: Cytotoxicity against human OCI-AML2 cells assessed as cell growth inhibition at 5 uM incubated for 24 to 48 hrs by cell counting assay; type: functional, cell-based; details: time 24-48 hrs
[7] = test system: OCI-AML2; assay: Induction of cell cycle arrest in human OCI-AML2 cells assessed as accumulation of cells at G1 phase at 5 uM incubated for 48 hrs by EdU/DAPI staining based flow cytometry analysis; type: functional
[8] = Induction of cell apoptosis in human OCI-AML-3 cells at 5 uM incubated for 48 hrs by Annexin V/DAPI staining based flow cytometry analysis relative to control; type: functional
[9] = Induction of cell apoptosis in human THP-1 cells at 5 uM incubated for 48 hrs by Annexin V/DAPI staining based flow cytometry analysis relative to control; type: functional
[10] = test system: U-937; assay: Induction of cell differentiation in human U-937 cells assessed as increase in CD14 expression at 5 uM incubated for 48 hrs by flow cytometry analysis; type: functional, cell-based
[11] = test system: U-937; assay: Effect on DDIT3 gene expression in human U-937 cells at 10 uM incubated for 48 hrs by RT-qPCR; type: functional, cell-based
[12] = test system: U-937; assay: Effect on TP53 gene expression in human U-937 cells at 10 uM incubated for 48 hrs by RT-qPCR; type: functional, cell-based
[13] = test system: U-937; assay: Effect on WT1 gene expression in human U-937 cells at 10 uM incubated for 48 hrs by RT-qPCR; type: functional, cell-based
[14] = test system: U-937; assay: Effect on CCNB1 gene expression in human U-937 cells at 10 uM incubated for 48 hrs by RT-qPCR; type: functional, cell-based
[15] = test system: OCI-AML2; assay: Induction of ferroptosis in human OCI-AML2 cells assessed as increase in lipid peroxidation accumulation at 100 uM incubated for 48 hrs by C11-BODIPY 581/591 staining based flow cytometry analysis; type: functional, cell-based
[16] = test system: OCI-AML2; assay: Induction of ferroptosis in human OCI-AML2 cells assessed as increase in ROS generation at 5 uM incubated for 48 hrs in presence of ferrostatin-1 by DCFH-DA staining based flow cytometry analysis; type: functional, cell-based
[17] = test system: U-937; assay: Induction of ferroptosis in human U-937 cells assessed as increase in malondialdehyde level at 5 uM incubated for 48 hrs; type: functional, cell-based
[18] = test system: OCI-AML2; assay: Induction of ferroptosis in human OCI-AML2 cells assessed as increase in malondialdehyde level at 5 uM incubated for 48 hrs in presence of ferrostatin-1; type: functional, cell-based
[19] = test system: Acute myeloid leukemic cell; assay: Induction of ferroptosis in human Acute myeloid leukemic cells assessed as upregulation of HMOX1 mRNA level by RT-qPCR analysis; type: functional, cell-based
[20] = test system: Acute myeloid leukemic cell; assay: Induction of ferroptosis in human Acute myeloid leukemic cells assessed as upregulation of TF mRNA level by RT-qPCR analysis; type: functional, cell-based
[21] = test system: Acute myeloid leukemic cell; assay: Induction of ferroptosis in human Acute myeloid leukemic cells assessed as upregulation of FTH1 mRNA level by RT-qPCR analysis; type: functional, cell-based
[22] = test system: Acute myeloid leukemic cell; assay: Induction of ferroptosis in human Acute myeloid leukemic cells assessed as upregulation of HMOX1 protein level at 2.5 to 10 uM by Western blot analysis; type: functional, cell-based; details: dose 2.5-10 µM
[23] = test system: Acute myeloid leukemic cell; assay: Induction of ferroptosis in human Acute myeloid leukemic cells assessed as upregulation of TF protein level at 2.5 to 10 uM by Western blot analysis; type: functional, cell-based; details: dose 2.5-10 µM
[24] = test system: Acute myeloid leukemic cell; assay: Induction of ferroptosis in human Acute myeloid leukemic cells assessed as upregulation of FTH1 protein level at 2.5 to 10 uM by Western blot analysis; type: functional, cell-based; details: dose 2.5-10 µM
[25] = test system: U-937; assay: Induction of ferroptosis in human U-937 cells assessed as increase in ferrous ion accumulation incubated for 48 hrs by RhoNox-1 staining based flow cytometry analysis; type: functional, cell-based; details: dose 2.5-10 µM
[26] = test system: U-937; assay: Induction of ferroptosis in human U-937 cells assessed as increase in ferrous ion accumulation at 5 uM incubated for 48 hrs by RhoNox-1 staining based flow cytometry analysis; type: functional, cell-based
[27] = test system: Acute myeloid leukemic cell; assay: Induction of ferroptosis in human Acute myeloid leukemic cells assessed as upregulation of GPX4 mRNA level by RT-qPCR analysis; type: functional, cell-based
[28] = test system: Acute myeloid leukemic cell; assay: Induction of ferroptosis in human Acute myeloid leukemic cells assessed as increase in ACSL4 level by Western blot analysis; type: functional, cell-based
[29] = test system: Acute myeloid leukemic cell; assay: Induction of ferroptosis in human Acute myeloid leukemic cells assessed as downregulation of GPX4 level by Western blot analysis; type: functional, cell-based
[30] = test system: U-937; assay: Induction of ferroptosis in human U-937 cells assessed as increase in lipid peroxidation at 10 uM in presence of Zinc protoporphyrin by flow cytometry analysis; type: functional, cell-based
[31] = test system: MLL-AF9; assay: Synergistic antitumor activity against mouse MLL-AF9 at 1 to 4 uM in presence of cytarabine by CCK-8 assay; type: functional, cell-based; details: dose 1-4 µM
[32] = Half life in ICR(CD-1) mouse at 50 mg/kg, ip treated up to 24 hrs by LC-MS/MS analysis; type: ADME, organism-based; details: in vivo
[33] = Tmax in ICR(CD-1) mouse at 50 mg/kg, ip treated up to 24 hrs by LC-MS/MS analysis; type: ADME, organism-based; details: in vivo
[34] = Cmax in ICR(CD-1) mouse at 50 mg/kg, ip treated up to 24 hrs by LC-MS/MS analysis; type: ADME, organism-based; details: in vivo
[35] = MRT (0 to infinity) in ICR(CD-1) mouse at 5 mg/kg, iv treated up to 24 hrs by LC-MS/MS analysis; type: ADME, organism-based; details: in vivo
[36] = Volume of distribution at steady state in ICR(CD-1) mouse at 5 mg/kg, iv treated up to 24 hrs by LC-MS/MS analysis; type: ADME, organism-based; details: in vivo, read-out: Vdss
[37] = Clearance in ICR(CD-1) mouse at 5 mg/kg, iv treated up to 24 hrs by LC-MS/MS analysis; type: ADME, organism-based; details: in vivo
[38] = test system: MLL-AF9; assay: Antitumor activity against mouse MLL-AF9 cells allografted in female C57BL/6 mouse model assessed as reduction in splenomegaly at 50 mg/kg, ip administered once daily for 23 days in presence of cytarabine; type: functional, organism-based; details: time 23.0 day
[39] = test system: MLL-AF9; assay: Antitumor activity against mouse MLL-AF9 cells allografted in female C57BL/6 mouse model assessed as reduction in hepatomegaly at 50 mg/kg, ip administered once daily for 23 days; type: functional, organism-based; details: time 23.0 day
[40] = Toxicity in female C57BL/6 mouse model assessed as increase in survival rate at 50 mg/kg, ip administered once daily in presence of cytarabine by Kaplan Mayer survival analysis; type: organism-based; details: in vivo

O=C(NO)c1cccc2[nH]c(C#Cc3cccc(C(F)(F)F)c3)cc12
IC50 [1]: > 100 µM | IC50 [2]: 8.07 µM | IC50 [3]: ≤ 10 µM | IC50 at 2 days [4]: 80 µM | Activity [5]: Active | Activity [6]: Active | Activity [7]: Dose-dependent-effect | Activity [8]: ~20% | Activity [9]: ~20% | Activity [10]: Active | Activity [11]: Active | Activity [12]: Active | Activity [13]: Active | Activity [14]: Active | Activity [15]: Active | Activity [16]: inactive | Activity [17]: Active | Activity [18]: inactive | Activity [19]: Active | Activity [20]: Active | Activity [21]: Active | Activity [22]: Active | Activity [23]: Active | Activity [24]: Active | Activity [25]: Dose-dependent-effect | Activity [26]: Active | Activity [27]: Active | Activity [28]: Active | Activity [29]: Active | Activity [30]: Active | Activity [31]: Active | half-life [32]: 8.95 h | Tmax [33]: 4.8 min | Cmax [34]: 2920 ng/mL | MRT inf [35]: 1.27 h | Vd [36]: 10.2 L/kg | clearance [37]: 134 mL/min/kg | Activity [38]: Active | Activity [39]: Active | Activity [40]: Non-toxic
